The results in this text go back to patent US9974806B2 (priority 2012, dated 2018).

The test system of the series is Shiga toxins.

Take colloidal bismuth hydroxide gel [CBHG]: the “cytotoxic activity on Vero cells” value is “significant decrease”.
